Reference: PMC12794274, “Therapeutic potential of Sheng-Xian-Tang in doxorubicin-induced chronic heart failure by regulation of phenylalanine metabolism disruption” (Chinese Medicine, 2026)

Key:
[1] = tested on: AML12 cells; test: AML12 cell viability (CCK8); format: cell-based
Experimental: (§1) Mouse hepatocellular cell lines (AML12), purchased from the Shanghai Cell Bank of Chinese Academy of Sciences (Shanghai, China), were cultured in Dulbecco’s Modified Eagle Medium (DMEM) supplemented with 10% fetal bovine serum (FBS) and 2 mM L-glutamine and 1% pyruvate and maintained at 37 °C in a […], 5% CO2 incubator. Cells were seeded at a density of 5 × 10^5 cells/well in 6-well plates. […] Cells’ survival rate was detected by Cell Counting Kit-8 (CCK8) Reagents (Thermo Scientific, Singapore).

[2] = tested on: PAH activity in AML12 cells; format: cell-based; conditions: BH4 10 μM; timosaponin B-II, neomangiferin, anemarrhenasaponin I 5, 10, 20 μM; timosaponin AIII 0.1, 0.2, 0.5 μM
Experimental: Serum biochemical parameters including brain natriuretic peptide (BNP), creatine kinase (CK), lactate dehydrogenase (LDH), alanine aminotransferase (ALT), and aspartate aminotransferase (AST) were measured using commercial ELISA kits (Nanjing Jiancheng Bioengineering Institute, Nanjing, China) according to the manufacturer’s instructions. Superoxide dismutase (SOD), and malondialdehyde (MDA) levels in liver and heart tissues were measured using assay kits from Aifang Biotechnology (Changsha, China). Phenylalanine and tyrosine concentrations in the cell were determined using an ELISA kit from Abmart (Shanghai, China).
as §1

[3] = target: Phenylalanine hydroxylase (PAH) protein (Homo sapiens, UniProt P00439); test: Surface Plasmon Resonance (SPR) analysis, Biacore T200; format: binding; conditions: PAH immobilized on CM5 chip, read-out: dissociation constant (Kd)
Phenylalanine hydroxylase (PAH) protein, sequence (P00439 whole entry): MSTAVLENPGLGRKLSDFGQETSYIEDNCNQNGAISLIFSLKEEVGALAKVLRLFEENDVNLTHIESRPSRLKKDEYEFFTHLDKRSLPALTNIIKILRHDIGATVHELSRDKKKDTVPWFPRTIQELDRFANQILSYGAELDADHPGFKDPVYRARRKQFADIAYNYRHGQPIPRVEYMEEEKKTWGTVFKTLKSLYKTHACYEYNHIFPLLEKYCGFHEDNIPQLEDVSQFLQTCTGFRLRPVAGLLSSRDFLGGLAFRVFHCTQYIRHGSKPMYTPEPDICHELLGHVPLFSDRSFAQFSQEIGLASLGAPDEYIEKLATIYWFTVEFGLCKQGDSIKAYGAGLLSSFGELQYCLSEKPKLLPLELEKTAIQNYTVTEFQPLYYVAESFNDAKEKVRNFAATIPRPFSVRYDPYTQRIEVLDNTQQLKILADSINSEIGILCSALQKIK
Experimental: SPR assays were conducted using a Biacore T200 system (GE Healthcare Life Sciences, USA). Phenylalanine hydroxylase (PAH) protein was immobilized on CM5 sensor chips using an amine-coupling kit (BR100050, GE Healthcare) following standard procedures. […] Samples were injected over reference and PAH-immobilized flow cells at a flow rate of 30 μL/min, with 120 s contact time and 120 s dissociation time. Kinetic parameters were calculated using Biacore T200 evaluation software.

SMILES	non-cytoxic concentration ([1]; AML12 cells)	phenylalanine levels in AML12 cells increased by DOX [2]	Kd [3]	non-cytoxic concentration ([1]; mouse)
CC(C)(O)[C@@H]1CC[C@](C)([C@H]2[C@@H](O)C[C@@]3(C)[C@@H]4C[C@H](O[C@@H]5O[C@H](CO)[C@@H](O)[C@H](O)[C@H]5O)[C@H]5C(C)(C)[C@@H](O[C@@H]6OC[C@@H](O)[C@H](O)[C@H]6O)CC[C@@]56C[C@@]46CC[C@]23C)O1 [Astragaloside IV]	5 to 20 µM			
CC(C)CCC1(O)O[C@H]2[C@H](O)[C@H]3[C@@H]4CC[C@@H]5C[C@@H](O[C@@H]6O[C@H](CO)[C@H](O)[C@H](O)[C@H]6O[C@@H]6O[C@H](CO)[C@@H](O)[C@H](O)[C@H]6O)CC[C@]5(C)[C@H]4CC[C@]3(C)[C@H]2[C@@H]1C (stereo partly shown) [Anemarrhenasaponin I]	5 to 20 µM	significantly reduce	< 10 µM	
COc1ccc(-c2coc3cc(O[C@@H]4O[C@H](CO)[C@@H](O)[C@H](O)[C@H]4O)ccc3c2=O)cc1 [Ononin]	5 to 20 µM			
C[C@@H](CC[C@@]1(O)O[C@H]2C[C@H]3[C@@H]4CC[C@@H]5C[C@@H](O[C@@H]6O[C@H](CO)[C@H](O)[C@H](O)[C@H]6O[C@@H]6O[C@H](CO)[C@@H](O)[C@H](O)[C@H]6O)CC[C@]5(C)[C@H]4CC[C@]3(C)[C@H]2[C@@H]1C)CO[C@@H]1O[C@H](CO)[C@@H](O)[C@H](O)[C@H]1O [Timosaponin B-II]		significantly reduce	< 10 µM	5 to 20 µM
C[C@H]1CC[C@@]2(OC1)O[C@H]1C[C@H]3[C@@H]4CC[C@@H]5C[C@@H](O[C@@H]6O[C@H](CO)[C@H](O)[C@H](O)[C@H]6O[C@@H]6O[C@H](CO)[C@@H](O)[C@H](O)[C@H]6O)[C@@H](O)C[C@]5(C)[C@H]4CC[C@]3(C)[C@H]1[C@@H]2C [Timosaponin A-II]	0.1 to 0.5 µM			
O=C(O)CCCCCCCC(=O)O [Azelaic acid]				5 to 20 µM
C[C@H]1CC[C@@]2(OC1)O[C@H]1C[C@H]3[C@@H]4CC[C@@H]5C[C@@H](O[C@@H]6O[C@H](CO)[C@H](O)[C@H](O)[C@H]6O[C@@H]6O[C@H](CO)[C@@H](O)[C@H](O)[C@H]6O)CC[C@]5(C)[C@H]4CC[C@]3(C)[C@H]1[C@@H]2C [Timosaponin A-III]		significantly reduce	< 10 µM	0.1 to 0.5 µM
